The text below walks through data of patent publication US5238689A, “Use of ruthenium red as immunosuppressive agents” (Procept, Inc., priority 1992, dated 1993).

Where “and” joins values, the source holds several entries; their conditions need not be identical. Equal values may be shown once. Read-outs that look alike come from different tables or passages of the source. Bounds are passed on as bounds.

For experiment [1], the system named is transfected Jurkat T cells. Briefly: Calcium influx into activated human T cells (Fluo-3AM). Type of experiment: cell-based. How it is done: To uncover the mode of action of Ruthenium Red, additional experiments were performed. Because it is known that this compound effects Ca^2+ levels in cells, we examined whether Ruthenium Red prevents the rise in intracellular Ca^2+ that accompanies T cell activation. The Ca^2+ -sensitive dye, Fluo-3AM (Molecular Probes, Inc., Eugene, Oreg.), can be used to detect intracellular Ca^2+. For these studies, transfected Jurkat T cells were incubated with Fluo-3AM (1 μM) for one hour at room temperature. The cells were then washed three times and incubated in 1 ml. volumes (5×10^5 cells) with various agents to trigger T cell activation and thus Ca^2+ uptake. Ruthenium Red was added at a concentration of 1 μg/ml (1.27 μM).

Experiment [2] deals with T cell responses to cytochrome c. How it is done:
For these studies, B10.A mice were treated with Ruthenium RED as before and immunized with cytochrome c. On day 7 after challenge with antigen, draining lymph nodes were removed and single cell suspensions of lymphocytes were prepared. The lymphocytes were counted to estimate overall yields and were cultured in vitro with antigen (100 μg/ml) for three days prior to addition of tritiated thymidine to quantitate proliferation.

Experiment [3] deals with T cells activated with HSV-1. To be noted: 1 μg/ml. How it is done: In another study, T cells were activated with HSV-1 as described before and the Ruthenium Red (1 μg/ml) was added either at the start of culture (time 0) or after various delays.
The subject of experiment [4] is specific antibody to cytochrome c. How it is done: The remaining mice in this study continued on their assigned treatment and were bled on day 23, as in the original pilot study, and sera were tested for specific antibodies in the ELISA. The data has been expressed as the mean of the endpoint dilution.
Experiment [5] concerns human peripheral blood lymphocytes (PBL's). The conditions noted are these: for 3H-thymidine uptake / % Inhibition: Ruthenium Red 0.2 μg/ml, 3 days. As to the method: For these studies, human peripheral blood lymphocytes (PBL's) were incubated in vitro with varying concentrations of IL-2 and in the presence or absence of Ruthenium Red (0.2 μg/ml). After 3 days of culture, ^3 H-thymidine was added for 16 hr, cells were harvested, and the filters counted.

A further experiment relates to Lewis lung carcinoma. To be noted: mice treated with the dye; cited from earlier work.
Experiment [6] relates to human T cell (PBL) proliferation. To be noted: for % Inhibition: mean of 5 separate experiments.
Experiment [7] concerns mitochondria of rat liver cells. The conditions noted are these: cited from earlier work.
The test system of experiment [8] is smooth muscle plasma membrane of pig stomach cells. The conditions noted are these: cited from earlier work.
In experiment [9] the test system is specific antibodies to cytochrome c. To be noted: 4 mg/kg i.p. daily, 2 days before and 12 days after immunization; day 23.
In the next experiment the test system is T cells. The conditions noted are these: mean of 4 determinations. As to the method: Alloreactivity was measured by stimulating T cells from one donor with inactivated lymphocytes from a second donor. The inhibition values represent the means of 4 separate determinations.

Take `CNc1ccc2oc(C[C@H]3O[C@@]4(CC[C@H]3C)O[C@H]([C@H](C)C(=O)c3ccc[nH]3)[C@H](C)C[C@H]4C)nc2c1C(=O)O` [Calcium ionophore, reference compound]: in [1] (Calcium ionophore, without Ruthenium Red), the “% Fluorescent cells” value amounted to 84.6%.

Turning to `N.N.N.N.N.N.N.N.N.N.N.N.N.N.[Cl-].[Cl-].[Cl-].[Cl-].[Cl-].[Cl-].[O-2].[O-2].[Ru+3].[Ru+3].[Ru+4]` [Ruthenium Red], the “Cell Yield (draining lymph nodes)” value in experiment [2] (mouse 14, day 7) is 0.26 × 10^6; in [2] (mouse 16, day 7) it was 0.81 × 10^6; in experiment [2] (mouse 17, day 7), 16 × 10^6. In [2] (mouse 17, day 7, antigen 100 μg/ml, three days in vitro), the Specific proliferation is on record as 22,236 cpm. Besides, the “response to cytochrome c” value in [2] (third mouse) is “responded normally to cytochrome c”. Also, in [2] (two of the three mice), the “enlargement of lymph nodes following immunization” value is “no enlargement of lymph nodes following immunization”. For the same molecule, the “latest time of addition after triggering with antigen still producing maximal inhibition” value in experiment [3] is ≤ 20 h. Moreover, the “% Inhibition” value in [3] (time of addition 0 hr) is on record as 95%; in experiment [3] (time of addition 1 hr) it was 97%; in experiment [3] (time of addition 2 hr), 96%; in experiment [3] (time of addition 4 hr), 92%; in experiment [3] (time of addition 20 hr) it was 86%; in experiment [3] (time of addition 33 hr), 58%. Besides, the “% Inhibition” value in [5] (IL-2 0.01 U/ml) is reported as 80%; in experiment [5] (IL-2 1 U/ml), 92%; in experiment [5] (IL-2 100 U/ml), 88%; in [6] (0.01 μg/ml (0.01 μM)), 17%; in experiment [6] (0.1 μg/ml (0.13 μM)), 31%; in experiment [6] (0.2 μg/ml (0.25 μM)), 60%. Besides, the “% Inhibition” value in experiment [6] (1.0 μg/ml (1.27 μM)) was 89%; in [6] (2.5 μg/ml (3.18 μM), 3.18 µM), ~90% and 96%. Further, the “High Responders” value in experiment [4] (antibody titer greater than 1:5,120, day 23) was 2/6. The “mice with titers greater than 1:5000” value in [4] (day 23) is 2 of the 6. For the same molecule, the “Mean Titer” value in [4] (mean of the endpoint dilution, day 23) is 18,613 ± 13,020. In addition, the “fraction of mice with a greatly reduced response to antigen” value in [4] (pilot study, proliferative data and antibody titers together) is reported as “two thirds”. For the same molecule, the 3H-thymidine uptake in experiment [5] (IL-2 0.01 U/ml) was 1,154 cpm; in experiment [5] (IL-2 1 U/ml), 2,805 cpm; in experiment [5] (IL-2 100 U/ml) it was 3,839 cpm. Besides, in experiment [5] (PBL's), the “proliferative response induced by IL-2 alone” value is “can be inhibited by this compound”. In addition, in the experiment with Lewis lung carcinoma, the “anti-tumor properties, growth of Lewis lung carcinoma” value is on record as “growth inhibition of Lewis lung carcinoma in mice”. In [6] (read-out: IC50, inhibition of T cell proliferation, antigen-stimulated human PBL), the IC50 was ~200 nM. Also, the “percentage of cells staining positively with the dye (intracellular Ca2+)” value in [1] (1 μg/ml (1.27 μM)) was “major reduction in the percentage of cells staining positively with the dye”. For the same molecule, the “% Fluorescent cells” value in experiment [1] (Activation (anti-CD2), Ruthenium Red 1 μg/ml (1.27 μM)) is given as 17.2%. The “effect on calcium ion transport” value in experiment [7] and in experiment [8] (smooth muscle plasma membrane of pig stomach cells) was “affect calcium ion transport” each time. The “Ca2+ efflux” value in [8] is recorded as “inhibit Ca^2+ efflux”. In addition, the “reduction in antibody levels compared to control mice who received water” value in [9] was determined as 70%. Besides, the “% Inhibition of alloreactivity” value with T cells (0.1 μg/ml (0.13 μM)) was 69%; with T cells (0.2 μg/ml (0.25 μM)) it was 77%; in the experiment on T cells (1.0 μg/ml (1.27 μM)), 85%; in the experiment with T cells (2.5 μg/ml (3.18 μM)), 92%.

For orientation: % Inhibition means the percentage by which the read-out fell short of the control.
